For series [1], the system named is Balb/C female athymic (nude) mice. The note with it: 2 courses. The protocol: (§1) The mice were divided into groups of 5-8 animals each and treated with different doses and schedules of FUra, AZT, or both in combination. FUra and AZT were dissolved in normal saline immediately before use and were administered by intraperitoneal bolus injection so that the desired dose was contained in 0.1 ml/10 g animal body weight. FUra was administered in doses corresponding to 80, 90 and 100 mg/kg weekly or 20, 25, and 30 mg/kg for 5 consecutive days with intervening 2 week rest periods. The AZT component was administered at doses of 300 or 600 mg/kg. In those cases where the two components were not administered simultaneously, the FUra component was administered first followed in approximately 2 hours with the AZT component. Toxicity was assessed by determination of mortality, changes in body weight, and changes in white blood cell counts (WBC). Animal body weights were recorded immediately before and twice weekly after initiation of treatment and weight change was calculated as a percentage of the initial body weight. To determine WBC, blood was collected from the orbital sinus in a heparinized Natelson pipette, and after appropriate dilution the cell number was determined electronically one week after each course of therapy. The tests were carried out in duplicate and the pooled number of animals per treatment group was 10-16.
A second series of toxicity tests were carried out using a different regimen with similar groups of animals as follows:
Group 1 was treated with 600 mg/kg of AZT for days 3 to 5 inclusive; Group 2 was treated with 20 mg/kg of FUra from days 1 to 5; Group 3 was treated with 20 mg/kg of FUra for days 1 to 5 and with 600 mg/kg of AZT for days 3 to 5; Group 4 was treated with 25 mg/kg of FUra for days 1 to 5. The medication was administered by intraperitoneal bolus, the AZT being administered two hours after FUra. The treatment was repeated every two weeks. A total of 2 courses were administered, the tests being carried out in triplicate and the pool number of animals per treatment group corresponded to 21-30.

Series [2] has the same test system. The settings on record: 4 courses. The procedure: In vivo tests to assess the toxicity of various dosages of AZT and FUra were carried out on Balb/C female athymic (nude) mice.
as §1
In the control group the mice received no treatment; in group 2 they received 600 mg/kg of AZT; in group 3 they received 85 mg/kg of FUra; in group 4 they received 85 mg/kg of FUra followed at a 2 hour interval by 600 mg/kg of AZT; in group 5 the mice received 100 mg/kg of FUra alone. A total of 4 courses of administration were carried out, each in triplicate, and the pooled number of animals per treatment group corresponded to 23-30.

The next series relates to mice. The experiment in a line: LD10 of MTX in mice. Type of series: in vivo. The settings on record: weekly.

Read-outs that look alike come from different tables or passages of the source.

For `O=c1[nH]cc(F)c(=O)[nH]1` [FUra, 5-fluorouracil], the “Mortality (percent dead on day 29 after starting treatment)” value in series [1] (FUra 20 mg/kg i.p. days 1 to 5, repeated every two weeks) was found to be 0%; in series [1] (FUra 25 mg/kg i.p. days 1 to 5, repeated every two weeks), 12.5%; in series [2] (FUra 85 mg/kg i.p.) it was 25%; in series [2] (FUra 100 mg/kg i.p.), 60.8%.
`CN(Cc1cnc2nc(N)nc(N)c2n1)c1ccc(C(=O)N[C@@H](CCC(=O)O)C(=O)O)cc1` [MTX, methotrexate] registered an LD10 with mice of 87.5 mg/kg/wk.
As to `Cc1cn([C@H]2C[C@H](N=[N+]=[N-])[C@@H](CO)O2)c(=O)[nH]c1=O` [AZT, 3′-azido-3′-deoxythymidine], the “Mortality (percent dead on day 29 after starting treatment)” value amounted to 0% in series [1] (AZT 600 mg/kg i.p. days 3 to 5, repeated every two weeks) and 0% in series [2] (AZT 600 mg/kg i.p.).
